Experiments:
amphetamine deaths = experiment: Amphetamine toxicity in mice; type: in vivo, mice (female); settings: for ratio of number of dead animals to number of starting animals: 1 h before 15 mg/kg amphetamine, mortality at 4 h
Protocol: The test was effected on group of 10 female mice weighing between 18 and 22 g kept at 27° C for the duration of the test. The test products were intraperitoneally administered in different doses in a volume of 0.01 ml /g of mouse. One hour later, the mice received an injection of 15 mg/kg of a solution of 1.5 mg of amphetamine per ml of physiological serum. The mortality 4 hours after the amphetamine injection was determined and the results were expressed as a ratio of number of dead animals to number of starting animals.

Acute toxicity = settings: mouse, in vivo, ip, Swiss mice, observed for a week
Protocol: The acute toxicity was determined on groups of Swiss mice weighing 18 to 22 g and the test products were administered intraperitoneally in increasing doses and the animals were kept under observation for a week.

amytal sleeping time = experiment: Potentialization of sleeping time (amytal); type: in vivo, mice (female); settings: 1 h before 80 mg/kg amytal i.v.
Protocol: The potentialization of sleeping time was determined with a test using amytal [5-ethyl-5-isoamyl-barbituric acid] in which groups of female mice weighing between 18 and 22 g were kept at 25° C for the duration of the test. The test products were administered intraperitoneally at different doses one hour before intraveinous injection of 80 mg/kg of amytal and the sleeping time was noted which is the time while the reflux of straightening in the mice was negative.

[1] = test system: pentamethylenetetrazol convulsions; experiment: Anticonvulsant effect (pentamethylenetetrazol perfusion); type: in vivo, mice (female); settings: 1 h before perfusion
Protocol: The anticonvulsant activity of the compounds was determined on groups of 10 female mice with intraperitoneal administration of the test compounds in acid solution at different doses and the control group received only the solvent. One hour after the injection, the mice were perfused with a solution of pentamethylenetetrazol in physiological serum at a concentration of 3 mg/ml. The perfusion was intraveinous at a rate of 1 ml per minute and in the course of the perfusion, the progress of introxication was characterized by the following 3 criteria:
a. Threshold of convulsant effect (myoclonia of the ears)
b. Crisis of clonic convulsions
c. Tonic convulsion with apnea and generally followed by death.

c1ccc2c(c1)CC1NC2c2ccccc21 (stereo not drawn) [Example 1, 10,11-dihydro-5,10-imino-[5H]-dibenzo (a,d) cycloheptene dl]
ratio of number of dead animals to number of starting animals (amphetamine deaths; 1 mg/Kg i.p.): 10/10 | ratio of number of dead animals to number of starting animals (amphetamine deaths; 2 mg/Kg i.p.): 5/10 | ratio of number of dead animals to number of starting animals (amphetamine deaths; 200γ/Kg i.p.): 9/10 | ratio of number of dead animals to number of starting animals (amphetamine deaths; 500γ/Kg i.p.): 9/10 | LD50 at 168 h (Acute toxicity): 150 mg/kg

O=C(Oc1ccccc1[N+](=O)[O-])N1C2Cc3ccccc3C1c1ccccc12 (stereo not drawn) [Example 8, 12-(o-nitrophenoxycarbonyl)-10,11-dihydro-5,10-imino-[5H]-dibenzo (a,d) cycloheptene dl]
LD50 at 168 h (Acute toxicity): > 1000 mg/kg

CP(C)(=O)CN1C2Cc3ccccc3C1c1ccccc12 (stereo not drawn) [Example 9, 12-dimethylphosphorosomethyl-10.11-dihydro-5,10-imino-[5H]-dibenzo (a,d) cycloheptene dl]
LD50 at 168 h (Acute toxicity): 350 mg/kg

CC(=O)N1C2Cc3ccccc3C1c1ccccc12 (stereo not drawn) [Example 10, 12-acetyl-10,11-dihydro-5,10-imino-5H]-dibenzo (a,d) cycloheptene dl]
LD50 at 168 h (Acute toxicity): > 500 mg/kg

NC(=O)N1C2Cc3ccccc3C1c1ccccc12 (stereo not drawn) [Example 13, 12-carbamoyl-10,11-dihydro-5,10-imino-[5H]-dibenzo (a,d) cycloheptene dl]
LD50 at 168 h (Acute toxicity): 1000 mg/kg

CN1C2Cc3ccccc3C1c1ccccc12 (stereo not drawn) [Example 15, 12-methyl-10,11-dihydro-5,10-imino-[5H]-dibenzo (a,d) cycloheptene dl]
average sleeping time (amytal sleeping time; 0.5 mg/Kg i.p.): 33.9 min | average sleeping time (amytal sleeping time; 1 mg/Kg i.p.): 32.9 min | average sleeping time (amytal sleeping time; 2 mg/Kg i.p.): 30.6 min | average sleeping time (amytal sleeping time; 5 mg/Kg i.p.): 42.9 min | average sleeping time (amytal sleeping time; 10 mg/Kg i.p.): 78.6 min | ratio of number of dead animals to number of starting animals (amphetamine deaths; 1 mg/Kg i.p.): 6/10 | ratio of number of dead animals to number of starting animals (amphetamine deaths; 2 mg/Kg i.p.): 1/10 | ratio of number of dead animals to number of starting animals (amphetamine deaths; 5 mg/Kg i.p.): 0/10 | ratio of number of dead animals to number of starting animals (amphetamine deaths; 10 mg/Kg i.p.): 0/10 | ratio of number of dead animals to number of starting animals (amphetamine deaths; 200γ/Kg i.p.): 10/10 | ratio of number of dead animals to number of starting animals (amphetamine deaths; 500γ/Kg i.p.): 8/10 | ED50 (amphetamine deaths; Mus musculus, ip, 4 h, i.p., mice, read-out: DA50 (dose which reduced by half the amphetamine deaths)): 1 mg/kg | LD50 at 168 h (Acute toxicity): 175 mg/kg | Dose of pentamethylenetetrazol, Clonic Crisis ([1]; 1 mg/Kg i.p.): 44.0 mg/kg | Dose of pentamethylenetetrazol, Myoclonia ([1]; 1 mg/Kg i.p.): 38.1 mg/kg | Dose of pentamethylenetetrazol, Tonic Crisis ([1]; 1 mg/Kg i.p.): 182.7 mg/kg | Dose of pentamethylenetetrazol, Clonic Crisis ([1]; 2 mg/Kg i.p.): 52.9 mg/kg | Dose of pentamethylenetetrazol, Myoclonia ([1]; 2 mg/Kg i.p.): 46.7 mg/kg | Dose of pentamethylenetetrazol, Tonic Crisis ([1]; 2 mg/Kg i.p.): 231.8 mg/kg | Dose of pentamethylenetetrazol, Clonic Crisis ([1]; 200γ/Kg i.p.): 43.0 mg/kg | Dose of pentamethylenetetrazol, Myoclonia ([1]; 200γ/Kg i.p.): 38.1 mg/kg | Dose of pentamethylenetetrazol, Tonic Crisis ([1]; 200γ/Kg i.p.): 122.7 mg/kg | Dose of pentamethylenetetrazol, Clonic Crisis ([1]; 500γ/Kg i.p.): 45.9 mg/kg | Dose of pentamethylenetetrazol, Myoclonia ([1]; 500γ/Kg i.p.): 41.1 mg/kg | Dose of pentamethylenetetrazol, Tonic Crisis ([1]; 500γ/Kg i.p.): 134.9 mg/kg
